According to publication PMC7070694, “Identification of New Peptides from Fermented Milk Showing Antioxidant Properties: Mechanism of Action” (Antioxidants, 2020):
Peptide text beside a SMILES is read from it.

Assays:
[1] = MTT cell viability (cytotoxicity); type: cell-based; settings: human, Caco-2 cells (1 × 10^4), synthetic peptides 0.05 mg/mL, no TbOOH, mean ± SD of at least three experiments, read-out: Percentage of Cell Viability, None (c)
Caco-2 cell monolayer = test: Transepithelial transport through Caco-2 cell monolayers (Transwell); type: in vitro ADME; settings: Caco-2 monolayer on Transwell, 21 days, TEER > 1100 Ω × cm^2, 75 µg peptide in 0.75 mL HBSS apical, 37 °C, RP-HPLC UV 220 nm, mean ± SD, n. d. = not detected with RP-HPLC
Method: Caco-2 cells were obtained from DISCOG (University of Padova, Padova, Italy). The cells cultured in DMEM (high glucose) supplemented with 10% FBS, were used between 35 and 60 passages. In order to perform transepithelial transport, 8 × 10^4 cells were seeded on Transwell^© cell culture inserts (0.4 µm pore sizes, 12 mm diameter, 1.12 cm^2 grown surface; Corning Life Sciences, Tewksbury, MA, USA). Cells were grown, differentiated for 21 days and the monolayer integrity was estimated by transepithelial electrical resistance (TEER) (Millicell® ERS-2 volt-ohmmeter, EDM Millipore, Darmstadt, Germany) showing values higher than 1100 Ω × cm^2.
The intestinal barrier crossing capacity of the fractions or synthetic peptides through Caco-2 cells monolayer was evaluated using Transwell® insert model according to Tonolo et al.. Briefly, after 21 days of culturing, Caco-2 cells differentiated forming a monolayer that delimited an upper part (apical compartment) and lower part (basolateral compartment). The monolayer was rinsed three times with Hank’s balanced salt solution (HBSS) and 10 mM D-glucose and equilibrated for 30 min at 37 °C. After, cells were incubated in the presence of 0.75 mL HBSS containing 150 µg fraction or 75 µg peptide in the apical chamber at 37 °C for 120 min. Samples collected from both compartments (apical and basolateral) at different times were centrifuged at 11,600× g, filtered with 0.45 µm filter, frozen and lyophilized. Subsequently, the obtained samples were dissolved in 100 µL of 0.1% TFA aqueous solution and evaluated by RP-HPLC and Matrix assisted laser desorption/ionization- time of flight/time of flight mass spectrometry (MALDI-TOF/TOF MS).
The apical and basolateral compartments were evaluated in RP-HPLC using a column Onyx Monolithic C18 100 mm × 4.6 mm, LC column (Phenomenex, Torrance, CA, USA) with a Waters 2695 Separation Module (Milfold, MA, USA) with a Waters 996 Photodiode Array Detector. Separations were performed with a linear gradient from 0–60% ACN in the presence of 0.1% TFA over 20 min at a constant flow rate of 2 mL/min monitoring the peaks by UV detection (λ = 220 nm).
Subsequently, the obtained fractions were analysed with a MALDI-TOF/TOF 4800 mass spectrometer (AB Sciex, Framingham, MA, USA). After an initial full MS scan, enlargements on the MS signals of interest were acquired. For the basolateral fractions, the samples, after lyophilisation, were dissolved in 50 µL of 25% ACN and 0.1% TFA. The analysis was then performed on 2 µL of these solutions mixed with 2 µL of peptide MALDI matrix α-cyano-4-hydroxycynnamic acid (10 mg/mL aqueous 70% acetonitrile/0.1% TFA). The following analytical conditions were set for MALDI-TOF spectra acquisition: positive ion reflector mode, initial mass range 500–3500 Da (the mass range was then adapted for each enlargement), variable laser intensity (3000–3800), shots/sub-spectrum 50, total shots/spectrum 1500 and accelerating voltage of 20 kV. Final data analysis and fragments identification were done on Data Explorer software (AB Sciex, Framingham, MA, USA), utilizing external mass calibration performed with mass peptide standards (Sigma-Aldrich, St Louis, MO, USA).
In order to evaluate the intestinal crossing capacity of the four peptides, Transwell® insert model peptide absorption, was performed. […] After 10 min and 120 min, apical and basolateral compartments were collected and analyzed by RP-HPLC and mass spectrometry.

RP-HPLC Estimation AP (%) (Caco-2 cell monolayer; 120 min after 30 min equilibration, apical compartment, % of total peptide added): 88.28 ± 5.89% | RP-HPLC Estimation BL (%) (Caco-2 cell monolayer; A-B, 120 min, basolateral compartment, % of initial peptide added apically): 0.21 ± 0.01%
Compound: CC[C@H](C)[C@H](NC(=O)[C@H](CCCCN)NC(=O)[C@H](CC(=O)O)NC(=O)[C@H](CCC(N)=O)NC(=O)[C@H](CC(C)C)NC(=O)[C@H](CCC(=O)O)NC(=O)[C@H](CC(=O)O)NC(=O)[C@@H](N)CCC(=O)O)C(=O)N[C@@H](Cc1c[nH]cn1)C(=O)N1CCC[C@H]1C(=O)N[C@@H](Cc1ccccc1)C(=O)O [E-11-F] (H-EDELQDKIHPF-OH)
viability at 24 h, 50 µg/mL [1]: 112 ± 13.5%
